Measurements as given in patent US20090280193A1, “Enerceutical mediated activation of the Alternative Cellular Energy (ACE) pathway in the therapy of diseases” (priority 2008, published 2009).

Test: UV light induced fluorescence when mixed with freshly prepared neutral red
Type: physicochemical
Excerpt: This concept is fully consistent with the finding that various mineral and organic substances can be formulated that similarly show fluorescence when mixed with neutral red and illuminated with UV light. Not all cellular energy delivering products show this reaction but may yet presumably still be are able to absorb energies; and further that such absorption may be facilitated using various types of dyes or other chemicals. The advantage of a current formulation that has been devised over the last several years is that it clearly fluoresces with neutral red and that a distant action can be easily observed in a distantly held neutral red indication solution. This action includes otherwise unexplained movements of fine particles within the neutral red solution and more strikingly the induced crystallization that occurs in the neutral red solution. […] The UV inducible fluorescence, or other form of energy emission, within the plastic bags will typically evoke some discernable fluorescence within at least some skin areas in most of the treated and symptomatic patients, consistent with an overall systemic activation of the body's ACE pathway. […] The liquid-in-a-bag format also allows for the addition of other materials that can further enhance the activation and/or fluorescence of the formulations being studied. […]

SMILES: CCN(CC)CC(=O)Nc1c(C)cccc1C [Lidocaine]
- fluorescence with neutral red: will not fluoresce
